Laboratory results as given in patent publication US10111902B2, “Polymers for reversing heparin-based anticoagulation” (University of British Columbia, priority 2011, dated 2018).
Entries after “also recorded” stand apart in the source; their conditions may differ.

Key:
[1] = system: unfractionated heparin (UFH); test: APTT assay, neutralization of UFH in citrate plasma; assay type: biochemical, human
Protocol: In one example, a heparin binding synthetic polyvalent cationic macromolecule JNK-1 can neutralize UFH in human blood under in vitro conditions (FIGS. 4A and 4B). Citrate plasma was anti-coagulated with 1.0 U/ml UFH (UFH control) and was titrated with different concentrations of JNK-1 polymers (0.009 to 8.69 nanomoles/ml) and protamine (0.2 to 222.2 nanomoles/ml).
Citrate plasma was anticoagulated with 2.0 U/ml UFH, Enoxaparin and Tinzaparin and was treated with different concentrations of the HBSPCM polymers and protamine (0.001 to 0.25 mg/ml). The APTT was measured for each sample.
Citrate plasma was anticoagulated with UFH (2.0 IU/mL), Enoxaparin (2.0 IU/mL) and Tinzaparin (1.14 IU/mL) and was titrated with different concentrations of the HBSPCM polymers and protamine (0.001 to 0.25 mg/ml). The APTT was measured for each sample.
Ability of HBSPCM polymers JNK-9, JNK-10 and JNK-11 was studied for the range of concentration from 0.01 to 0.25 mg/mL prepared in 0.15 M saline. Citrated blood was spun at 3000 RPM for 10 min to obtain platelet poor plasma (PPP). The PPP was then heparinized by adding 45 μL of heparin (UFH, LMWH etc.) to 2200 μL of PPP final concentration of 2.0 IU/mL for UFH and Tinzaparin and 1.14 IU/mL for Enoxaparin. Normal control was prepared by adding 25 μL of 0.15 M saline to 250 μL of PPP. 25 μL of each antidote solution (polymer or protamine) was added to 225 μL of heparinized PPP. 250 μL of APTT reagent (actin FSL) was then added and samples were incubated for 3 min at 37° C. 250 μL of normal control was combined with 250 μL of APTT reagent and also incubated for 3 min. 50 μL of 0.025M CaCl2 was added to 100 μL aliquots of normal control and sample (in triplicate). A heparinized control containing 225 μL of PPP and 25 μL of saline was also prepared and run similar to normal control.

[2] = system: Enoxaparin; test: Thromboelastography (TEG), neutralization of Enoxaparin in whole blood; assay type: cell-based; conditions: human whole blood; JNK-5 and JNK-6 at 0.1 mg/ml
Protocol: (§1) This example examines thromboelastography in the presence of various heparin binders. Thromboelastography (TEG) provides an in vitro method for monitoring of the evolution of the viscoelastic properties and coagulation kinetics of blood as clotting proceeds. The principle components of the TEG are a cylindrical cup and a bob suspended in the cup from a weak torsion wire. The warmed cup oscillates over a 10 second period through an angle of 4° 45′. Blood is added and a torque is transmitted to the bob as the gel forms. The rate of clot formation, the strength of the clot, and the rate of clot lysis are reflected in the shape traced out by the maxima in the bob oscillation as a function of time (the trace of the TEG). The clot's physical properties, i.e. rate of clot formation, clot strength, and stability are dependent on the interaction of fibrinogen, platelets, and plasma proteins. TEG studies yield the cumulative effect of several components of coagulation (global homeostasis) as a function of time.
(§2) To carry out TEG experiments, citrate anti-coagulated whole blood with heparin or heparin derivatives added are incubated with buffered HBSPCM polymers (sodium citrate or saline) for 1 minute before recalcification at 37° C. Clot formation kinetics are monitored in a TEG machine (350 μl whole blood+35 μl polymer or control solution) at 37° C. […]

[3] = system: Enoxaparin; test: Anti Xa neutralization of Enoxaparin in platelet poor plasma; assay type: biochemical, human; conditions: One IU LMWH per ml in platelet poor plasma
Protocol: Both JNK-1 and JNK-2 result in greater neutralization of unfractionated heparin at two doses (50 and 100 μg/ml), Tinzaparin (LMWH) and Enoxaparin (LMWH).

[4] = system: blood coagulation; test: Blood coagulation: PT and APTT in platelet poor plasma; assay type: biochemical, human; conditions: FIG. 15, compared to saline
Protocol: The present example examines blood coagulation in the presence of a heparin binding polymer. JNK-1 polymers were tested for blood compatibility using the activated partial thromboplastin time (APTT) and the prothrombin time (PT) in fresh human plasma. PT can be used to evaluate the extrinsic and common coagulation pathway and the results are expressed in seconds required for a fibrin clot to form after tissue thromboplastin (innovin) has been added to the blood sample. APTT is used to evaluate the intrinsic and common coagulation pathway. The results are expressed in seconds required for a fibrin clot to form in the plasma sample after a partial thromboplastin reagent (actin) and calcium chloride have been added to the sample. Blood was mixed with a measured amount of citrate and the plasma was obtained by centrifugation, using methods known in the art.
A final JNK-1 concentration of 10 mg/ml is used at in a 9:1 dilution of plasma at 37° C. Control experiments were done adding identical volumes of saline solution. JNK-1 polymer solutions were incubated with platelet poor plasma for 5 minutes at 37° C. before adding PT and APTT reagents.
Blood coagulation is measured using APTT.

[5] = system: blood coagulation; test: Blood compatibility by thromboelastograph (TEG); assay type: cell-based; conditions: polymer concentration 0.5 mg/ml
Protocol: as §1, §2

[6] = system: LMWH Tinzaparin; test: Thromboelastography (TEG), neutralization of LMWH Tinzaparin in whole blood; assay type: cell-based; conditions: human whole blood; for clot strength (maximum amplitude, MA) with Tinzaparin: antidote at higher concentration (0.25 mg/ml)
Protocol: as §1
To carry out TEG experiments, citrate anti-coagulated whole blood with heparin or heparin derivatives added are incubated with buffered HBSPCM polymers (sodium citrate or saline) for 1 minute before recalcification at 37° C. Clot formation kinetics are monitored in a TEG machine (350 μl whole blood+35 μl polymer or control solution) at 37° C.
The coagulation time (FIG. 7A) and maximum clot strength, or maximum amplitude (MA) (FIG. 7B) are shown. Citrated whole blood was added to UFH or Tinzaparin (0.5 U/ml) and re-calcified at 37° C. in a TEG cup and monitored using a TEG machine. JNK-1 polymers or protamine at different concentrations were used as neutralizing agents.

[7] = system: blood
[8] = system: platelets; test: Platelet activation of 23 kDa HBSPCM polymers (CD62-PE, flow cytometry); assay type: cell-based; conditions: PRP, 0.5 mg/mL, 1 h, 37° C
Protocol: The level of platelet activation was quantified by flow cytometry. Ninety microliter of PRP was incubated at 37° C. with 10 μL of 5 mg/mL of polymer or protamine (final concentration 0.5 mg/mL). After 1 h, aliquots of the incubation mixtures were removed for assessment of the platelet activation state. Five microliter of post-incubation platelet/polymer or protamine mixture, diluted in HEPES buffer, was incubated for 20 minutes in the dark with 5 μL of monoclonal anti-CD62-PE (Immunotech). The samples were then stopped with 0.5 mL of phosphate-buffered saline solution. The level of platelet activation was analyzed in a BD FACSCanto II flow cytometer (Becton Dickinson) by gating platelets specific events based on their FITC-CD42 fluorescence and light scattering profile. Activation of platelets was expressed as the percentage of platelet activation marker CD62-PE fluorescence detected in the 10,000 total events counted. Duplicate measurements were done, the mean of which was reported. Controls were done for the flow cytometric analysis. One U/ml of bovine thrombin (Sigma) was used as a positive control, and PE conjugated goat anti-mouse IgG polyclonal antibodies (Immunotech) was used as the non-specific binding control.

For protamine, the “anticoagulant effect at high concentration (APTT)” value ([1]; heparinized human citrate plasma, high doses of antidote) was “had an anticoagulant effect”, the “UFH neutralization (APTT)” value ([1]; human citrate plasma anti-coagulated with UFH (1.0 U/ml), titrated with JNK-1 0.009 to 8.69 or protamine 0.2 to 222.2 nanomoles/ml) was “complete neutralization occurred at a higher dosage of protamine; also recorded: acted with less efficiency for UFH within a smaller dose window” and the “Enoxaparin neutralization (TEG)” value [2] was “not effective at neutralizing UFH or LMWH Tinzaparin and Enoxaparin in terms of the time to clot formation”. The “Anti Xa Neutralization (%) of Enoxaparin at 100 μg/ml” value [3] was 73 ± 4%, the “blood coagulation (APTT biocompatibility)” value [4] was “different blood coagulation profile” and the “coagulation time (R) and kinetics parameter (K), TEG” value [5] was “different blood coagulation profile”. For the same substance, the “LMWH Tinzaparin neutralization (TEG: coagulation time, clot strength)” value ([6]; Tinzaparin 0.5 U/ml, re-calcified at 37° C) was “not effective at neutralizing UFH or LMWH Tinzaparin and Enoxaparin in terms of the time to clot formation”, the “clot strength (maximum amplitude, MA) with Tinzaparin” value [6] was “did not form a stable clot” and the “clot strength (maximum amplitude, MA) with Tinzaparin” value ([6]; listed as protamine) was “not at all at a high dose”. For the same substance, the “Blood compatibility at 1 mg/ml” value [7] was “poor [3]” and the “platelet activation (CD62-PE)” value [8] was “significant levels of platelet activation”.
